From US6680313B2, “Carbapenum derivatives” (Meiji Seika Kaisha, Ltd., priority 2000, dated 2004)
In brackets after ≈: the same amount, converted by molar mass.

How the values were obtained:
[1] = tested on: S. epidermidis ATCC 14990; assay: Antimicrobial activities (MIC, agar dilution); type: cell-based; conditions: Staphylococcus epidermidis, ATCC14990, Sensitivity Disk agar-N+5% Horse blood, 10^6 CFU/ml, read-out: minimum inhibiting concentrations (MIC)
Experimental: (§1) The minimum inhibiting concentrations (MIC, μg/ml) of representative compounds, among the novel carbapenem derivatives of the present invention, to various pathogenic bacteria were measured in accordance with the method described in CHEMOTHERAPY, vol. 16, No. 1, 99, 1968. The culture medium for the measurement is Sensitivity Disk agar-N+5% Horse blood, and the amount of inoculants used is 10^6 CFU/ml.

S. aureus 209P JC-1 = assay: Antimicrobial activities (MIC, agar dilution); type: cell-based; conditions: Staphylococcus aureus, Sensitivity Disk agar-N+5% Horse blood, 10^6 CFU/ml, read-out: minimum inhibiting concentrations (MIC)
Experimental: as §1

S. pneumoniae PRC 9 = assay: Antimicrobial activities (MIC, agar dilution); type: cell-based; conditions: Streptococcus pneumoniae, PRC9; S. pneumoniae PRC 9, Penicillin-hyperresistant strain; Sensitivity Disk agar-N+5% Horse blood; 10^6 CFU/ml; read-out: minimum inhibiting concentrations (MIC)
Experimental: as §1

C. freundii GN 346 = assay: Antimicrobial activities (MIC, agar dilution); type: cell-based; conditions: Citrobacter freundii, GN346, Sensitivity Disk agar-N+5% Horse blood, 10^6 CFU/ml, read-out: minimum inhibiting concentrations (MIC)
Experimental: as §1

E. hirae ATCC 8043 = assay: Antimicrobial activities (MIC, agar dilution); type: cell-based; conditions: Enterococcus hirae, ATCC8043, Sensitivity Disk agar-N+5% Horse blood, 10^6 CFU/ml, read-out: minimum inhibiting concentrations (MIC)
Experimental: as §1

E. coli NIHJ JC-2 = assay: Antimicrobial activities (MIC, agar dilution); type: cell-based; conditions: Escherichia coli, NIHJJC2, Sensitivity Disk agar-N+5% Horse blood, 10^6 CFU/ml, read-out: minimum inhibiting concentrations (MIC)
Experimental: as §1

B. catarrhalis W-0500 = assay: Antimicrobial activities (MIC, agar dilution); type: cell-based; conditions: Moraxella catarrhalis, W0500, Sensitivity Disk agar-N+5% Horse blood, 10^6 CFU/ml, read-out: minimum inhibiting concentrations (MIC)
Experimental: as §1

H. influenzae PRC 44 = assay: Antimicrobial activities (MIC, agar dilution); type: cell-based; conditions: Haemophilus influenzae, PRC44, Sensitivity Disk agar-N+5% Horse blood, 10^6 CFU/ml, read-out: minimum inhibiting concentrations (MIC)
Experimental: as §1

K. pneumoniae PC 1602 = assay: Antimicrobial activities (MIC, agar dilution); type: cell-based; conditions: Klebsiella pneumoniae, PC1602, Sensitivity Disk agar-N+5% Horse blood, 10^6 CFU/ml, read-out: minimum inhibiting concentrations (MIC)
Experimental: as §1

P. vulgaris GN 7919 = assay: Antimicrobial activities (MIC, agar dilution); type: cell-based; conditions: Proteus vulgaris, GN7919, Sensitivity Disk agar-N+5% Horse blood, 10^6 CFU/ml, read-out: minimum inhibiting concentrations (MIC)
Experimental: as §1

E. faecalis W-73 = assay: Antimicrobial activities (MIC, agar dilution); type: cell-based; conditions: Enterococcus faecalis, W73, Sensitivity Disk agar-N+5% Horse blood, 10^6 CFU/ml, read-out: minimum inhibiting concentrations (MIC)
Experimental: as §1

H. influenzae PRC 2 = assay: Antimicrobial activities (MIC, agar dilution); type: cell-based; conditions: Haemophilus influenzae, PRC2, Sensitivity Disk agar-N+5% Horse blood, 10^6 CFU/ml, read-out: minimum inhibiting concentrations (MIC)
Experimental: as §1

S. aureus M 126 = assay: Antimicrobial activities (MIC, agar dilution); type: cell-based; conditions: Staphylococcus aureus, M126; S. aureus M 126, Methicillin-hyperresistant strain; Sensitivity Disk agar-N+5% Horse blood; 10^6 CFU/ml; read-out: minimum inhibiting concentrations (MIC)
Experimental: as §1

mice (ICR, male) = assay: Acute toxicity test; type: in vivo; conditions: intravenous, 2000 mg/kg, three mice
Experimental: The compound of Example 5 according to the present invention was intraveneously administered at a dose of 2000 mg/kg to mice (ICR, male) (one group consisting of three mice).

Row | MIC [1] | MIC (S. aureus 209P JC-1) | MIC (S. pneumoniae PRC 9) | MIC (C. freundii GN 346) | MIC (E. hirae ATCC 8043) | MIC (E. coli NIHJ JC-2) | MIC (B. catarrhalis W-0500) | MIC (H. influenzae PRC 44) | MIC (K. pneumoniae PC 1602) | MIC (P. vulgaris GN 7919) | MIC (E. faecalis W-73) | MIC (H. influenzae PRC 2) | MIC (S. aureus M 126) | Structure (SMILES) | acute toxicity: survival (mice (ICR, male))
1 | < 0.025 µg/mL | < 0.025 µg/mL | 0.2 µg/mL (≈ 0.668 µM) | 0.2 µg/mL (≈ 0.668 µM) | 0.78 µg/mL (≈ 2.61 µM) | 0.1 µg/mL (≈ 0.334 µM) | 0.05 µg/mL (≈ 0.167 µM) | 12.5 µg/mL (≈ 41.8 µM) | 0.2 µg/mL (≈ 0.668 µM) | 0.1 µg/mL (≈ 0.334 µM) | 0.78 µg/mL (≈ 2.61 µM) | 0.78 µg/mL (≈ 2.61 µM) | 25 µg/mL (≈ 83.5 µM) | C[C@@H](O)[C@H]1C(=O)N2C(C(=O)O)=C(SCCN=CN)C[C@H]12 [Compound A, Imipenem, reference compound] | 
2 | < 0.025 µg/mL | < 0.025 µg/mL | 0.2 µg/mL | 1.56 µg/mL | 0.39 µg/mL | 0.2 µg/mL | 0.1 µg/mL | 0.2 µg/mL | 0.1 µg/mL | 0.1 µg/mL | 0.39 µg/mL | < 0.025 µg/mL | 6.25 µg/mL | C[C@@H](O)[C@H]1C(=O)N2C(C(=O)[O-])=C(c3cn4cncc4s3)[C@H](C)[C@H]12.[Na+] [Compound B, Sodium (1S,5R,6S)-6-((1R)-1-hydroxyethyl)-2-(imidazo[5,1-b]thiazol-2-yl)-1-methyl-1-carbapen-2-em-3-carboxylate, reference compound] | 
3 | < 0.025 µg/mL | < 0.025 µg/mL | 0.05 µg/mL |  | 0.2 µg/mL | 1.56 µg/mL | 0.1 µg/mL | 0.025 µg/mL | 1.56 µg/mL | 0.78 µg/mL | 0.2 µg/mL | < 0.025 µg/mL | 0.78 µg/mL | C[C@@H](O)[C@H]1C(=O)N2C(C(=O)[O-])=C(c3cn4cnc(SCCF)c4s3)[C@H](C)[C@H]12.[Na+] [Example 14, Sodium (1S,5R,6S)-2-[7-(2-fluoroethyl)thioimidazo[5,1-b]thiazol-2-yl]-6-((1R)-1-hydroxyethyl)-1-methyl-1-carbapen-2-em-3-carboxylate] | 
4 | < 0.025 µg/mL | < 0.025 µg/mL | 0.05 µg/mL | 1.56 µg/mL | 0.2 µg/mL | 0.2 µg/mL | 0.05 µg/mL | 0.1 µg/mL | 0.39 µg/mL | 0.39 µg/mL | 0.2 µg/mL | 0.05 µg/mL | 0.78 µg/mL | C[C@@H](O)[C@H]1C(=O)N2C(C(=O)[O-])=C(c3cn4cnc(SCCNC(=N)N)c4s3)[C@H](C)[C@H]12.[Na+] [Example 20, Sodium (1S,5R,6S)-2-[7-(2-guanidinoethyl)thioimidazo[5,1-b]thiazol-2-yl]-6-((1R)-1-hydroxyethyl)-1-methyl-1-carbapen-2-em-3-carboxylate] | 

Row | Structure (SMILES) | MIC [1] | MIC (S. aureus 209P JC-1) | MIC (S. pneumoniae PRC 9) | MIC (C. freundii GN 346) | MIC (E. hirae ATCC 8043) | MIC (E. coli NIHJ JC-2) | MIC (B. catarrhalis W-0500) | MIC (H. influenzae PRC 44) | MIC (K. pneumoniae PC 1602) | MIC (P. vulgaris GN 7919) | MIC (E. faecalis W-73) | MIC (H. influenzae PRC 2) | MIC (S. aureus M 126) | acute toxicity: survival (mice (ICR, male))
5 | C[C@@H](O)[C@H]1C(=O)N2C(C(=O)[O-])=C(c3cn4cnc(SCCN)c4s3)[C@H](C)[C@H]12.[Na+] [Example 5, Sodium (1S,5R,6S)-2-[7-(2-aminoethyl)thioimidazo[5,1-b]thiazol-2-yl]-6-((1R)-1-hydroxyethyl)-1-methyl-1-carbapen-2-em-3-carboxylate] | < 0.025 µg/mL | < 0.025 µg/mL | 0.05 µg/mL | 1.56 µg/mL | 0.39 µg/mL | 0.1 µg/mL | 0.05 µg/mL | 0.2 µg/mL | 0.1 µg/mL | 0.2 µg/mL | 0.2 µg/mL | 0.05 µg/mL | 1.56 µg/mL | all the mice survived
